The values that follow come from US12091399B2, “Phenyltetrazole derivatives as plasma kallikrein inhibitors” (Boehringer Ingelheim International GmbH, priority 2018, dated 2024).

Human PKK, sequence (P03952 391-638): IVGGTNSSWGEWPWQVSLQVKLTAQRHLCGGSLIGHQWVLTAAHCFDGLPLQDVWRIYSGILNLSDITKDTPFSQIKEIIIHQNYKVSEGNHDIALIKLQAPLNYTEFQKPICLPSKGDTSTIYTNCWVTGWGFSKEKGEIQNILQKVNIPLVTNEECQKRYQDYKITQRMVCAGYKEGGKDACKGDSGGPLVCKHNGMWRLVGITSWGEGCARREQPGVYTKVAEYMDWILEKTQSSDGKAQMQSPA
Human PKK, sequence (P03952 20-390 partner): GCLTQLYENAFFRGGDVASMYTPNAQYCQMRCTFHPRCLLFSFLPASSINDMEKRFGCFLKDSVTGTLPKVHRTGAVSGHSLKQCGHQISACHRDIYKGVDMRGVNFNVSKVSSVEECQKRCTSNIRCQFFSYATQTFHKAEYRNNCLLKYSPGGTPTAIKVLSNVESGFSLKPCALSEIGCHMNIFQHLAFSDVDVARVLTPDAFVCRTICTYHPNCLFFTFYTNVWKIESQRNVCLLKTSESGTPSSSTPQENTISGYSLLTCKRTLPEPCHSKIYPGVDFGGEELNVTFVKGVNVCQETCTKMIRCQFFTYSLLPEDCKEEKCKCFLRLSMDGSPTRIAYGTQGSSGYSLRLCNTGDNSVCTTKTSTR
PKK in kaolin activated human platelet poor plasma, sequence (P03952 391-638): as the sequence (P03952 391-638) above
PKK in kaolin activated human platelet poor plasma, sequence (P03952 20-390 partner): as the sequence (P03952 20-390 partner) above

The first assay addresses Human PKK (Homo sapiens (Human), UniProt P03952). The assay can be described thus: Inhibition of PKK using an endpoint assay (human PKK). The class given is biochemical. The following applies: 1 h at rt, 0.10 μM H-Pro-Phe-Arg-AMC. The method, then: The ability of compounds of formula (I) to inhibit plasma kallikrein (PKK), Factor XIIa (FXIIa), Factor XIa (FXIa), Factor Xa (FXa), Factor IIa (alpha-thrombin; FIIa), plasmin, trypsin, tissue kallikrein 1 (TK1), Factor Vila (FVIIa), or FVIIa complexed with Tissue Factor, phospholipids and CaCl2) (FVIIa/TF/PL/CaCl2) was determined using the following biochemical assays in assay buffer (100 mM Tris, 150 mM NaCL, adjusted to a pH of 7.8 with HCl, and containing 0.1% (w/v) BSA and 0.05% (v/v) Tween20) in the presence of 1% (v/v) DMSO:
Subsequently, PPACK II (Calbiochem) was added as a stop solution to achieve a final concentration of 1 μM and fluorescence was measured using an Envision Reader (PerkinElmer) with the wavelength excitation setting of 355 nm and the wavelength emission setting of 460 nm. The number of the compound corresponds to the number of the Example in the experimental section.
By IC50 is commonly meant the concentration that gives 50% inhibition. The low end stands for greater potency, the high end for weaker potency. `Cc1nc(N2CC3(CCOC3)C2)ccc1Cn1cc(C(=O)NCc2cc(Cl)ccc2-n2cnnn2)cn1` [Example 81, N-{[5-chloro-2-(1H-1,2,3,4-tetrazol-1-yl)phenyl]methyl}-1-[(2-methyl-6-{6-oxa-2-azaspiro[3.4]octan-2-yl}pyridin-3-yl)methyl]-1H-pyrazole-4-carboxamide] gave an IC50 of 22 nM.

Take `Cc1nc(N2CC3(CC3)C2)ccc1Cn1cc(C(=O)NCc2c(-n3cnnn3)ccc(Cl)c2F)cn1` [Example 53]: the IC50 was 0.2 nM. Against the preceding compound, the IC50 is about 110-fold lower.

For `Cc1nc(N2CC3C(C2)C3(F)F)ncc1Cn1cc(C(=O)NCc2cc(Cl)ccc2-n2cnnn2)c2cncnc21` (stereo not shown) [Example 24], the IC50 was found to be 2 nM. This IC50 lies about 10-fold higher than the previous one.

`Cc1nc(N2CC3CC3C2)ccc1Cn1cc(C(=O)NCc2c(-n3cnnn3)ccc(Cl)c2F)c2cncnc21` (stereo not shown) [Example 16] had an IC50 of 0.6 nM. This IC50 lies about 3.3-fold lower than the previous one.

In turn, `Cc1nc(N2CC3CC3C2)ncc1Cn1cc(C(=O)NCc2c(-n3cnnn3)ccc(Cl)c2F)c2cncnc21` (stereo not shown) [Example 26] yielded an IC50 of 0.9 nM.

As for `O=C(NCc1cc(Cl)ccc1-n1cnnn1)c1cnn(Cc2cnc(N3CC4C(C3)C4(F)F)c(Br)c2)c1` (stereo not shown) [Example 51], half-maximal inhibition (IC50) required 2 nM.

On to `Cc1nc(N2CCC3CC32)ccc1Cn1cc(C(=O)NCc2cc(Cl)ccc2-n2cnnn2)cn1` (stereo not shown) [Example 82, 1-[(6-{2-azabicyclo[3.1.0]hexan-2-yl}-2-methylpyridin-3-yl)methyl]-N-{[5-chloro-2-(1H-1,2,3,4-tetrazol-1-yl)phenyl]methyl}-1H-pyrazole-4-carboxamide], for which the IC50 is 7 nM. Compared with the last compound, the IC50 is about 3.5-fold higher.

Compound `COCc1nn(Cc2cnc(N3CC4C(C3)C4(F)F)nc2C)cc1C(=O)NCc1c(-n2cnnn2)ccc(Cl)c1F` (stereo not shown) [Example 32] registered an IC50 of 1 nM.

Take `Cc1nc(N2CC3CC2CO3)ccc1Cn1cc(C(=O)NCc2cc(Cl)ccc2-n2cnnn2)cn1` (stereo not shown) [Example 77, N-{[5-chloro-2-(1H-1,2,3,4-tetrazol-1-yl)phenyl]methyl}-1-[(2-methyl-6-{2-oxa-5-azabicyclo[2.2.1]heptan-5-yl}pyridin-3-yl)methyl]-1H-pyrazole-4-carboxamide]: half-maximal inhibition (IC50) was put at 49 nM.

With `Cc1nc(N2CC3C(C2)C3(F)F)ccc1Cn1cc(C(=O)NCc2cc(Cl)ccc2-n2cnnn2)cn1` (stereo not shown) [Example 6], the IC50 was found to be 0.4 nM.

`Cc1nc(N2CCC3(C2)CC3(F)F)ccc1Cn1cc(C(=O)NCc2cc(Cl)ccc2-n2cnnn2)cn1` (stereo not shown) [Example 66, N-{[5-chloro-2-(1H-1,2,3,4-tetrazol-1-yl)phenyl]methyl}-1-[(6-{1,1-difluoro-5-azaspiro[2.4]heptan-5-yl}-2-methylpyridin-3-yl)methyl]-1H-pyrazole-4-carboxamide] displayed an IC50 of 9 nM.

The compound `Cc1nc(N2CCC3CC3C2)ccc1Cn1cc(C(=O)NCc2cc(Cl)ccc2-n2cnnn2)cn1` (stereo not shown) [Example 85, 1-[(6-{3-azabicyclo[4.1.0]heptan-3-yl}-2-methylpyridin-3-yl)methyl]-N-{[5-chloro-2-(1H-1,2,3,4-tetrazol-1-yl)phenyl]methyl}-1H-pyrazole-4-carboxamide] registered an IC50 of 3 nM.

`Cc1nc(N2CC3(CCOCC3)C2)ccc1Cn1cc(C(=O)NCc2cc(Cl)ccc2-n2cnnn2)cn1` [Example 78, N-{[5-chloro-2-(1H-1,2,3,4-tetrazol-1-yl)phenyl]methyl}-1-[(2-methyl-6-{7-oxa-2-azaspiro[3.5]nonan-2-yl}pyridin-3-yl)methyl]-1H-pyrazole-4-carboxamide] came in with an IC50 of 19 nM.

Consider `COc1nn(Cc2ccc(N3CC4CC4C3)nc2C)cc1C(=O)NCc1c(-n2cnnn2)ccc(Cl)c1F` (stereo not shown) [Example 22], for which half-maximal inhibition (IC50) required 1 nM.

`COCc1nn(Cc2cnc(N3CC4(CC4)C3)nc2C)cc1C(=O)NCc1cc(Cl)ccc1-n1cnnn1` [Example 41]: the half-maximal inhibitory concentration (IC50) was determined as 6 nM. This IC50 lies about 6-fold higher than the previous one.

On to `COCc1nn(Cc2ccc(N3CC4CC4C3)nc2C)cc1C(=O)NCc1c(-n2cnnn2)ccc(Cl)c1F` (stereo not shown) [Example 14], for which it took 0.6 nM to reach half-maximal inhibition (IC50).

On to `CO[C@H]1[C@@H]2CC[C@H]1CN(c1ccc(Cn3cc(C(=O)NCc4cc(Cl)ccc4-n4cnnn4)cn3)c(C)n1)C2` [Example 80], for which the IC50 came out at 22 nM.

`Cc1nc(N2CC3CC3C2)ncc1Cn1cc(C(=O)NCc2cc(Cl)ccc2-n2cnnn2)c(C)n1` (stereo not shown) [Example 31] yielded an IC50 of 2 nM. Against the preceding compound, the IC50 is about 11-fold lower.

On to `Cc1nc(N2CC3C(C2)C3(F)F)ncc1Cn1cc(C(=O)NCc2cc(Cl)ccc2-n2cnnn2)c(C)n1` (stereo not shown) [Example 34], for which the IC50 stood at 1 nM. This IC50 lies about 2-fold lower than the previous one.

Consider `COC1C2CC1CN(c1ccc(Cn3cc(C(=O)NCc4cc(Cl)ccc4-n4cnnn4)cn3)c(C)n1)C2` (stereo not shown) [Example 84, N-{[5-chloro-2-(1H-1,2,3,4-tetrazol-1-yl)phenyl]methyl}-1-[(6-{6-methoxy-3-azabicyclo[3.1.1]heptan-3-yl}-2-methylpyridin-3-yl)methyl]-1H-pyrazole-4-carboxamide], for which the IC50 is 4 nM.

For the compound `Cc1nc(N2CCC3(CCOC3)C2)ccc1Cn1cc(C(=O)NCc2cc(Cl)ccc2-n2cnnn2)cn1` (stereo not shown) [Example 71, N-{[5-chloro-2-(1H-1,2,3,4-tetrazol-1-yl)phenyl]methyl}-1-[(2-methyl-6-{2-oxa-7-azaspiro[4.4]nonan-7-yl}pyridin-3-yl)methyl]-1H-pyrazole-4-carboxamide], the midpoint of inhibition, the IC50, lay at 8 nM.

`Cc1nc(N2CC3CC(C2)O3)ccc1Cn1cc(C(=O)NCc2cc(Cl)ccc2-n2cnnn2)cn1` [Example 65, N-{[5-chloro-2-(1H-1,2,3,4-tetrazol-1-yl)phenyl]methyl}-1-[(2-methyl-6-{6-oxa-3-azabicyclo[3.1.1]heptan-3-yl}pyridin-3-yl)methyl]-1H-pyrazole-4-carboxamide] came in with a half-inhibitory concentration (IC50) of 10 nM.

As for `Cc1nc(N2CC3COCC(C3)C2)ccc1Cn1cc(C(=O)NCc2cc(Cl)ccc2-n2cnnn2)cn1` [Example 75, N-{[5-chloro-2-(1H-1,2,3,4-tetrazol-1-yl)phenyl]methyl}-1-[(2-methyl-6-{3-oxa-7-azabicyclo[3.3.1]nonan-7-yl}pyridin-3-yl)methyl]-1H-pyrazole-4-carboxamide], 7 nM corresponded to half-maximal inhibition (IC50).

Regarding `Cc1nc(N2CC3(CC3)C2)ccc1Cn1cc(C(=O)NCc2c(F)cccc2-n2cnnn2)cn1` [Example 94, 1-[(6-{5-azaspiro[2.3]hexan-5-yl}-2-methylpyridin-3-yl)methyl]-N-{[2-fluoro-6-(1H-1,2,3,4-tetrazol-1-yl)phenyl]methyl}-1H-pyrazole-4-carboxamide], 4 nM corresponded to half-maximal inhibition (IC50).

In turn, `Cc1nc(N2CC3CCC(C2)N3)ccc1Cn1cc(C(=O)NCc2cc(Cl)ccc2-n2cnnn2)cn1` [Example 90, N-{[5-chloro-2-(1H-1,2,3,4-tetrazol-1-yl)phenyl]methyl}-1-[(6-{3,8-diazabicyclo[3.2.1]octan-3-yl}-2-methylpyridin-3-yl)methyl]-1H-pyrazole-4-carboxamide] yielded a concentration for half-maximal inhibition (IC50) of 119 nM.

In turn, `Cc1nc(N2CC3(CN(C)C3)C2)ccc1Cn1cc(C(=O)NCc2cc(Cl)ccc2-n2cnnn2)cn1` [Example 83, N-{[5-chloro-2-(1H-1,2,3,4-tetrazol-1-yl)phenyl]methyl}-1-[(2-methyl-6-{6-methyl-2,6-diazaspiro[3.3]heptan-2-yl}pyridin-3-yl)methyl]-1H-pyrazole-4-carboxamide] yielded an IC50 of 1090 nM.

Consider `Cc1nc(N2CC3(CNC(=O)C3)C2)ccc1Cn1cc(C(=O)NCc2cc(Cl)ccc2-n2cnnn2)cn1` [Example 74, N-{[5-chloro-2-(1H-1,2,3,4-tetrazol-1-yl)phenyl]methyl}-1-[(2-methyl-6-{7-oxo-2,6-diazaspiro[3.4]octan-2-yl}pyridin-3-yl)methyl]-1H-pyrazole-4-carboxamide], for which the IC50 is 232 nM.

Compound `Cc1nc(N2CCC3(CNC3)C2)ccc1Cn1cc(C(=O)NCc2cc(Cl)ccc2-n2cnnn2)cn1` [Example 93, N-{[5-chloro-2-(1H-1,2,3,4-tetrazol-1-yl)phenyl]methyl}-1-[(6-{2,6-diazaspiro[3.4]octan-6-yl}-2-methylpyridin-3-yl)methyl]-1H-pyrazole-4-carboxamide] displayed an IC50 of 286 nM.

Compound `Cc1nc(N2CC3(CC3)C2)ncc1Cn1cc(C(=O)NCc2c(-n3cnnn3)ccc(Cl)c2F)c(C)n1` [Example 38] registered a half-maximal inhibitory concentration (IC50) of 0.7 nM.

For `Cc1cc(Cl)cc(CNC(=O)c2cnn(Cc3ccc(N4CC5CC5C4)nc3C)c2)c1-n1cnnn1` (stereo not shown) [Example 4], the half-maximal inhibitory concentration (IC50) turned out to be 82 nM.

The compound `Cc1nc(N2C[C@@H]3CCN[C@@H]3C2)ccc1Cn1cc(C(=O)NCc2cc(Cl)ccc2-n2cnnn2)cn1` [Example 92, 1-({6-[(3aS,6aS)-octahydropyrrolo[3,4-b]pyrrol-5-yl]-2-methylpyridin-3-yl}methyl)-N-{[5-chloro-2-(1H-1,2,3,4-tetrazol-1-yl)phenyl]methyl}-1H-pyrazole-4-carboxamide] showed an IC50 of 155 nM. Against the preceding compound, the IC50 is about 1.9-fold higher.

`Cc1nc(N2CC3(CC3)C2)ncc1Cn1cc(C(=O)NCc2cc(Cl)ccc2-n2cnnn2)c2cncnc21` [Example 57] displayed a half-maximal inhibitory concentration (IC50) of 5 nM.

Compound `COCc1nn(Cc2ccc(N3CC4C(C3)C4(F)F)nc2C)cc1C(=O)NCc1cc(Cl)ccc1-n1cnnn1` (stereo not shown) [Example 12] displayed a half-inhibitory concentration (IC50) of 0.9 nM.

Another assay deals with PKK in kaolin activated human platelet poor plasma (Homo sapiens (Human), UniProt P03952). Nature of the assay: Inhibition of PKK in kaolin activated human PPP. The conditions noted are these: global fit over 25, 75, 250, 750 μg/mL kaolin, 37° C. It is filed as biochemical. As to the method:
Platelet poor plasma (PPP) obtained from human wholeblood, anticoagulated with Na-Citrate, was incubated with various concentrations of the test compound together with either 25, 75, 250, or 750 μg/mL kaolin in assay buffer for 20 min at 37° C. such that for each kaolin dose used a concentration response was obtained for the test compound.
The number of the compound corresponds to the number of the Example in the experimental section.
A word on the IC90: it is the point of the concentration-response curve where the effect stands at 90%. As for `Cc1nc(N2CC3C(C2)C3(F)F)ccc1Cn1cc(C(=O)NCc2cc(Cl)ccc2-n2cnnn2)cn1` (stereo not shown) [Example 6], the IC90 came out at 184 nM.
